In publication PMC11239830, “Synthetic macrolides overcoming MLSBK-resistant pathogens” (Cell Discovery, 2024):
Values after ≈ are worked out from the molar mass of the structure shown. Where two headings read alike, the source gives them in different places.

Key:
[1] = tested on: S. aureus; assay: MICs and MBCs against selected S. aureus isolates; assay type: cell-based, Staphylococcus aureus
[2] = tested on: H. influenzae; assay: MIC, broth microdilution; assay type: cell-based, Haemophilus influenzae
Procedure, shortened: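 Read-out is the lowest concentration without observed growth after 16–20 h at 37 °C, using the CLSI broth microdilution method.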

[3] = tested on: E. coli JW5503 ΔtolC pDualrep2; assay: pDualrep2 dual-reporter assay; assay type: cell-based; conditions: red = Katushka2S, translation inhibitors; green = RFP, DNA damage
[4] = In vivo pharmacokinetic study; parameters: species or system SD rats; conditions: SD (Sprague-Dawley), rat, iv, plasma
Protocol: The SD rats were fasted overnight and dosed i.v. at a dose of 5 mg/kg in a solution of DMSO/PEG 400/water (5%/24%/71%). The whole blood was collected into tubes containing sodium heparin at 0.083 h, 0.25 h, 0.5 h, 1 h, 2 h, 4 h, 8 h and 24 h after dosing. After centrifugation of 6000 rpm for 10 min at 4 °C, plasma samples were transferred into 1.5 mL tubes and stored at –20 °C. Prior to analysis, the samples were thawed on ice. An amount of 50 μL of each plasma sample was added to a mixture of 50 μL of propranolol (300 ng/mL) and 100 μL of acetonitrile and centrifuged at 12,000 rpm at 4 °C for 10 min. The supernatant was diluted and analyzed by LC-MS/MS. The liquid chromatography was conducted on a Thermo Scientific Q Exactive HF-X (ThermoFisher Scientific, USA) instrument, employing an ACQUITY UPLC BEH C18 Column with dimensions of 130 Å, 1.7 µm, 2.1 mm × 100 mm. The liquid phase method employed gradient elution with mobile phases consisting of acetonitrile and an 0.1% aqueous formic acid solution. Mass spectrometry was conducted in positive ion mode. The quantification of drug concentration in plasma samples was performed using the internal standard method, and the obtained pharmacokinetic parameters were calculated using Phoenix WinNonlin software.

[5] = tested on: human ribosome (HEK293F whole-cell lysate); assay: Mammalian cell-free in vitro translation assay; assay type: biochemical; conditions: human ribosomes, read-out: IC50, translation of Fluc mRNA
Protocol: For the in vitro translation assay, the whole-cell extract was derived from cultured HEK293F cells. The translation reactions were conducted in a total volume of 10 μL, comprising 4 μL of the HEK293F extract, 1 μL 10× Translation Buffer containing 160 mM HEPESs-KOH (pH 7.6), 100 mM Creatine phosphate, 1 mM Spermidine, 10 mM ATP, 1 mM GTP, 20 mM DTT, 800 ng/μL CKM, 600 mM KOAc, 30 mM Mg(OAc)2 and 200 μM Amino acids. The reaction mixture also included 2 U of RiboLock RNase inhibitor (ThermoFisher Scientific), 0.5 mM D-luciferin (Promega), 1 μL of either antibiotic solution or solvent (water or 10% DMSO), as specified, and 100 ng mRNA (added as a 1 μL water solution after pre-incubation of the reaction mixture with antibiotic for 5 min at 30 °C). Following the addition of mRNA, the mixtures were transferred to a pre-heated 96-well CELL CULTER PLATE (WHB), sealed with a PCR plate seal, and incubated in the CLARIOstar plate reader (BMG Labtech) at 37 °C with continuous luciferase activity measurement, following established procedures[66],[67]. Luciferase activity values were determined based on light intensities at 60 min.

[6] = tested on: S. aureus; assay: Time-kill kinetics assay; assay type: cell-based, Staphylococcus aureus
Protocol: To further determine the bactericidal activity of MCX-219, a time-kill assay was performed according to the method described previously. The S. aureus cultured overnight was diluted 10^4 times with CAMHB broth and incubated for 2 h. […] The number of colonies was measured at 0 h, 1 h, 3 h, 6 h, 9 h and 24 h. A flask containing bacteria left unexposed to antibiotic was used as blank control, and telithromycin was used as the positive drug (comparator drug).

[7] = CCK-8 assay for cytotoxicity; assay type: cell-based, human
Protocol: (§1) HepG2 cells (6 × 10^3) and HEK293T cells (4 × 10^3) were seeded into 96-well plates in 90 μL of DMEM medium containing 10% FBS per well. All test compounds were formulated as 10 mM stock solutions in DMSO (final concentration ≤ 0.5%). After overnight incubation, the test compound stock solution was diluted with DMEM medium containing 10% FBS to every target concentration, and 10 μL of each was added to each well. Three parallel experiments were set up for each compound. After incubation for 48 h, 10 μL of cell counting kit-8 (CCK-8) reagent was added to each well in sequence according to the manufacturer’s instructions. After incubating in a 37 °C incubator for 1–2 h, the absorbance was measured at a wavelength of 450 nm, and detected by ThermoScientific Multiskan FC (ThermoFisher Scientific, USA). This experiment was independently repeated three times. The data were processed by GraphPad Prism.

[8] = tested on: HepG2 cells; assay: CCK-8 assay for cytotoxicity; assay type: cell-based, human; conditions: for cytotoxicity at 5 μM: HepG2, 5 μM, 48 h
Protocol: as §1

[9] = Staphylococcus aureus, ATCC29213, S. aureus ATCC29213 (Table S10), read-out: MIC
[10] = Staphylococcus aureus, MRSA, strain 11, MRSA, c-ermB
[11] = Staphylococcus aureus, MSSA, strain 2, MSSA, i-ermC, read-out: MIC
[12] = Staphylococcus aureus, MSSA, strain 3, MSSA, i-ermC, read-out: MIC
[13] = Staphylococcus aureus, MSSA, strain 8, MSSA, c-ermB
[14] = Staphylococcus aureus, S. aureus ATCC29213, read-out: MBC
[15] = Staphylococcus aureus, strain 3, MSSA, i-ermC, read-out: MBC
[16] = Haemophilus influenzae, ATCC49247, H. influenzae ATCC49247, Azi-S, read-out: MIC
[17] = Staphylococcus aureus, MRSA, strain 1, MRSA, i-ermA
[18] = Staphylococcus aureus, MRSA, strain 4, MRSA, i-ermA
[19] = Staphylococcus aureus, MRSA, strain 5, MRSA, i-ermC
[20] = Staphylococcus aureus, MRSA, strain 6, MRSA, c-ermB
[21] = Staphylococcus aureus, MRSA, strain 7, MRSA, c-ermB
[22] = Staphylococcus aureus, MRSA, strain 10, MRSA, c-ermB
[23] = human, HepG2 cells, HepG2 cell viability, 48 h, read-out: CC50

CC[C@H]1OC(=O)[C@H](C)C(=O)[C@H](C)[C@@H](O[C@@H]2O[C@H](C)C[C@H](N(C)C)[C@H]2O)[C@](C)(OC)C[C@@H](C)C(=O)[C@H](C)[C@H]2N(CCCCn3cnc(-c4cccnc4)c3)C(=O)O[C@]12C [telithromycin, reference compound]
MIC [1, 9]: 0.12 µg/mL (≈ 0.148 µM)
MBC ([1]; Staphylococcus aureus, MRSA, strain 1, MRSA, i-ermA, read-out: MBC): > 2 µg/mL
MIC ([1]; Staphylococcus aureus, MRSA, strain 1, MRSA, i-ermA, read-out: MIC): 0.25 µg/mL (≈ 0.308 µM)
MBC ([1]; Staphylococcus aureus, MRSA, strain 4, MRSA, i-ermA, read-out: MBC): > 1 µg/mL
MIC ([1]; Staphylococcus aureus, MRSA, strain 4, MRSA, i-ermA, read-out: MIC): 0.12 µg/mL (≈ 0.148 µM)
MBC ([1]; Staphylococcus aureus, MRSA, strain 5, MRSA, i-ermC, read-out: MBC): > 2 µg/mL
MIC ([1]; Staphylococcus aureus, MRSA, strain 5, MRSA, i-ermC, read-out: MIC): 0.25 µg/mL (≈ 0.308 µM)
MBC ([1]; Staphylococcus aureus, MRSA, strain 6, MRSA, c-ermB, read-out: MBC): > 64 µg/mL
MIC ([1]; Staphylococcus aureus, MRSA, strain 6, MRSA, c-ermB, read-out: MIC): 8 µg/mL (≈ 9.85 µM)
MBC ([1]; Staphylococcus aureus, MRSA, strain 7, MRSA, c-ermB, read-out: MBC): > 64 µg/mL
MIC ([1]; Staphylococcus aureus, MRSA, strain 7, MRSA, c-ermB, read-out: MIC): 8 µg/mL (≈ 9.85 µM)
MBC ([1]; Staphylococcus aureus, MRSA, strain 10, MRSA, c-ermB, read-out: MBC): > 128 µg/mL
MIC ([1]; Staphylococcus aureus, MRSA, strain 10, MRSA, c-ermB, read-out: MIC): 16 µg/mL (≈ 19.7 µM)
MIC [1, 10]: 128 µg/mL (≈ 158 µM)
MIC [1, 11]: 0.12 µg/mL (≈ 0.148 µM)
MIC [1, 12]: 0.12 µg/mL (≈ 0.148 µM)
MIC [1, 13]: > 256 µg/mL
MIC ([1]; Staphylococcus aureus, MSSA, strain 9, MSSA, c-ermB): > 256 µg/mL
MBC [1, 14]: > 1 µg/mL
MBC [1, 15]: > 1 µg/mL
MBC ([1]; strain 2, MSSA, i-ermC): > 1 µg/mL
MIC [2, 16]: 4 µg/mL (≈ 4.93 µM)

CC[C@H]1OC(=O)[C@H](C)[C@@H](OC(=O)NCCCCCCC#Cc2ccc3c(=O)c(C(=O)O)cn(C)c3c2)[C@H](C)[C@@H](O[C@@H]2O[C@H](C)C[C@H](N(C)C)[C@H]2O)[C@](C)(OC)C[C@@H](C)C(=O)[C@H](C)[C@H]2NC(=O)O[C@@]21C [MCX-219]
MBC/MIC ([1]; S. aureus ATCC29213): 4
MIC [1, 9]: 0.25 µg/mL (≈ 0.258 µM)
MBC [1, 17]: 1 µg/mL (≈ 1.03 µM)
MIC [1, 17]: 0.25 µg/mL (≈ 0.258 µM)
MBC [1, 18]: 0.5 µg/mL (≈ 0.517 µM)
MIC [1, 18]: 0.12 µg/mL (≈ 0.124 µM)
MBC [1, 19]: 2 µg/mL (≈ 2.07 µM)
MIC [1, 19]: 1 µg/mL (≈ 1.03 µM)
MBC [1, 20]: 16 µg/mL (≈ 16.5 µM)
MIC [1, 20]: 2 µg/mL (≈ 2.07 µM)
MBC [1, 21]: > 16 µg/mL
MIC [1, 21]: 2 µg/mL (≈ 2.07 µM)
MBC [1, 22]: 16 µg/mL (≈ 16.5 µM)
MIC [1, 22]: 4 µg/mL (≈ 4.14 µM)
MBC [1, 10]: > 16 µg/mL
MIC [1, 10]: 2 µg/mL (≈ 2.07 µM)
MIC [1, 11]: 0.25 µg/mL (≈ 0.258 µM)
MIC [1, 12]: 0.25 µg/mL (≈ 0.258 µM)
MBC [1, 13]: 16 µg/mL (≈ 16.5 µM)
MIC ([1]; Staphylococcus aureus, MSSA, strain 8, MSSA, c-ermB, read-out: MIC): 4 µg/mL (≈ 4.14 µM)
MIC ([1]; Staphylococcus aureus, MSSA, strain 9, MSSA, c-ermB, read-out: MIC): 0.5 µg/mL (≈ 0.517 µM)
MBC [1, 14]: 1 µg/mL (≈ 1.03 µM)
MBC [1, 15]: 2 µg/mL (≈ 2.07 µM)
S. aureus isolates with bactericidal activity (MBC/MIC ≤ 4) ([1]; selected S. aureus isolates): 58.3%
MBC/MIC ([1]; strain 1, MRSA, i-ermA): 4
MBC ([1]; strain 2, MSSA, i-ermC): 2 µg/mL (≈ 2.07 µM)
MBC/MIC ([1]; strain 2, MSSA, i-ermC): 8
MBC/MIC ([1]; strain 3, MSSA, i-ermC): 8
MBC/MIC ([1]; strain 4, MRSA, i-ermA): 4
MBC/MIC ([1]; strain 5, MRSA, i-ermC): 2
MBC/MIC ([1]; strain 6, MRSA, c-ermB): 8
MBC/MIC ([1]; strain 7, MRSA, c-ermB): > 8
MBC/MIC ([1]; strain 8, MSSA, c-ermB): 4
MBC/MIC ([1]; strain 9, MSSA, c-ermB): 4
MBC/MIC ([1]; strain 10, MRSA, c-ermB): 4
MBC/MIC ([1]; strain 11, MRSA, c-ermB): > 8
dual-reporter inhibition zone colour [3]: red color inhibition zone
Cmax ([4]; male SD rats, i.v. 5 mg/kg): 15000 ± 2810 ng/mL
MRT ([4]; male SD rats, i.v. 5 mg/kg): 1.13 ± 0.0139 h
Tmax ([4]; male SD rats, i.v. 5 mg/kg): 4.8 min
half-life ([4]; male SD rats, i.v. 5 mg/kg): 3.92 ± 0.117 h
AUC(0-inf) ([4]; male SD rats, i.v. 5 mg/kg, mean ± SD, n 3): 7090 ± 1360 ng·h/mL
AUC(0-t) ([4]; male SD rats, i.v. 5 mg/kg, read-out: AUC0-24): 7080 ± 1360 ng·h/mL
clearance ([4]; male, 5 mg/kg): 12.2 mL/min/kg
IC50 [5]: > 100 µM
time-kill kinetics ([6]; constitutively erm-modified S. aureus 15B196): bactericidal
time-kill kinetics ([6]; induciblely erm-modified S. aureus PU32): bacteriostatic
CC50 at 48 h ([7]; human HepG2 and HEK293T cells, read-out: CC50 (cytotoxicity)): 26 to 29 µM
CC50 at 48 h [7, 23]: 28.9 ± 2.68 µM
cytotoxicity at 5 μM [8]: significantly reduced cytotoxicity compared to TcmX
MIC ([2]; H. influenzae ATCC49247, Azi-S, listed as 88g): 4 µg/mL (≈ 4.14 µM)
MIC [2, 16]: 2 µg/mL (≈ 2.07 µM)

CC[C@H]1OC(=O)[C@H](C)[C@@H](OC(=O)NCCCOCCC#Cc2ccc3c(=O)c(C(=O)O)cn(C)c3c2)[C@H](C)[C@@H](O[C@@H]2O[C@H](C)C[C@H](N(C)C)[C@H]2O)[C@](C)(OC)C[C@@H](C)C(=O)[C@H](C)[C@H]2NC(=O)O[C@@]21C [MCX-190]
dual-reporter inhibition zone colour [3]: red color inhibition zone
IC50 [5]: > 100 µM
CC50 at 48 h [7, 23]: > 200 µM
cytotoxicity at 5 μM [8]: significantly reduced cytotoxicity compared to TcmX
CC50 (cytotoxicity) ([8]; human HepG2 and HEK293T cells): essentially non-cytotoxic
